Experimental data: paper PMC5380659, “Unique charge-dependent constraint on collagen recognition by integrin α10β1” (Matrix Biology, 2017)
Changes are numbered by the printed parent chain. “Also recorded” adds a separate entry of the source.

What was measured:
C2C12-α10β1 cells = test: LDH-based SPBA of C2C12-α10β1 cell adhesion; parameters: species or system mouse; details: short THPs, 2 mM Mg^2 +, 1 h, Fig. 4B
Protocol: The mouse myoblast cell line, C2C12-α10β1 clone, expresses α10β1 as its sole collagen-binding integrin [16]. To investigate the binding of α10β1 to collagen in a cellular and whole integrin context, therefore, the adhesion of C2C12-α10β1 cells to Toolkits II and III was performed using two different approaches. First, SPBA was used, with lactate dehydrogenase to report the presence of adherent cells, after lysis, as described in Experimental. […] C2C12-α10B1 cells generally bound more prominently to those weaker peptides that supported just-observable binding of free I-domain. This may reflect avidity of the receptor-populated cell surface for the peptide-coated wells, or perhaps up-regulation of integrin affinity following receptor engagement. It is also possible that some cell binding reflects specific indirect interactions. For example, fibronectin, available either by intrinsic expression or from the serum supplement, binds well to II-44, and can also bind integrin αVβ3 [21].
Fig. 2 Binding of α10β1-transfected C2C12 cells to Collagen Toolkits. 96-well plates were coated with peptides as for Fig. 1, then C2C12-α10β1 cells (5 × 10^4 per well) were added and incubated for 1 h in the presence of either 2 mM MgCl2 or 2 mM EDTA as above. A: binding to Toolkit II. B: binding to Toolkit III.
The mouse myoblast cell line, C2C12, (control and transfectants, C2C12-α1β1, C2C12-α2β1, C2C12-α10β1 or C2C12-α11β1) was maintained in RPMI medium containing 10% fetal bovine serum, 2 mM glutamine, 100 IU/ml penicillin, 100 μg/ml streptomycin, and 2.5 μg/ml amphotericin. Cells were harvested by centrifugation, washed, and suspended at 0.5 × 10^6/ml in Tris-buffered saline supplemented with 5.5 mM glucose and either 2 mM EDTA or 2 mM MgCl2. SPBA was performed as follows: 100 μl of the cell suspension was added to peptide-coated wells [42] at 20 °C for 60 min. Cell adhesion was determined colorimetrically after lysis, using a lactate dehydrogenase (LDH)-based cell detection kit (Roche Diagnostics) according to the supplier's instructions.

α2β1 = tested on: α2β1; parameters: method as in 4 sources, ref [8], [10] = [8]; PMID 16326707; doi:10.1074/jbc.M509818200; 8 Raynal N. Hamaia S.W. Siljander P.R. Maddox B. Peachey A.R. Fernandez R. Foley L.J. Slatter D.A. Jarvis G.E. Farndale R.W. Use of synthetic peptides to locate novel integrin alpha2beta1-binding moti || [10]; PMID 16043429; doi:10.1074/jbc.M502431200; 10 Kim J.K. Xu Y. Xu X. Keene D.R. Gurusiddappa S. Liang X. Wary K.K. Hook M. A novel binding site in collagen type III for the integrins, alpha 1beta 1 and alpha 2beta 1 J. Biol. Chem. 280 2005 32512 ||| ref not given ||| ref [4] = [4]; PMID 19693543; doi:10.1007/s00441-009-0834-6; 4 Barczyk M. Carracedo S. Gullberg D. Integrins Cell Tissue Res. 339 1 2010 269 280 19693543 10.1007/s00441-009-0834-6 PMC2784866 ||| ref [12] = [12]; PMID 22654115; doi:10.1074/jbc.M112.353144; 12 Hamaia S.W. Pugh N. Raynal N. Nemoz B. Stone R. Gullberg D. Bihan D. Farndale R.W. Mapping of potent and specific binding motifs, GLOGEN and GVOGEA, for integrin alpha1beta1 using collagen toolkits; details: cited from earlier work; for Binding to integrin α2β1, previously described: ref not given
wild type α10 I domain = molecular target: T1, wild type α10 I domain (Homo sapiens, UniProt O75578); test: Concentration-dependent SPBA (KD) of wild-type α10 I domain; assay type: binding; details: SPBA concentration dependence; for Saturation / quality of binding, wild type α10 I domain: up to 100 μg/ml; for KD, wild type α10 I domain: I domain up to 100 μg/ml, Fig. 9C and D
T1 construct: Recombinant human α10 I domain-encoding plasmid (pGEX-2T-α10 I domain) was cloned using standard procedures; made in house; host or cells: bacteria (pGEX-2T plasmid; the Origami strain is stated only for α2 I domains)
T1 sequence (O75578 167-350 limits assumed): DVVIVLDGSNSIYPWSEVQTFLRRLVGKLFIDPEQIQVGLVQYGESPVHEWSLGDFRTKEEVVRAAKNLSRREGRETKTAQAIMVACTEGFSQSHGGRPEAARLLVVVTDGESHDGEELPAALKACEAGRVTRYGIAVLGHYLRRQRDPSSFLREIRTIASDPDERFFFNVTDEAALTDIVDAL
Protocol: (§1) 96-well plates were prepared as for Fig. 1. A: binding to Toolkit II, B: binding to Toolkit III.
(§2) I domain adhesion was determined colorimetrically, as described, here termed solid phase binding assay (SPBA). Peptides were coated at 10 μg/ml for 1 h at 22 °C on Immulon-2 HB 96-well plates (Thermo Life Sciences, Basingstoke, UK), and blocked for 1 h with 200 μl of TBS containing 50 mg/ml bovine serum albumin. […] Wells were washed five times with 200 μl of adhesion buffer containing MgCl2 or EDTA, before adding 100 μl of adhesion buffer containing the anti-GST-HRP conjugate at 1:10,000 dilution for 1 h at room temperature. After washing, colour was developed using an ImmunoPure TMB Substrate Kit (Pierce) according to the manufacturer's instructions.

R215Q α10 I domain = molecular target: T2, R215Q α10 I domain (Homo sapiens, UniProt O75578, R237Q); test: Concentration-dependent SPBA (KD) of α10-R215Q I domain; assay type: binding; details: SPBA concentration dependence; for Saturation / quality of binding, R215Q α10 I domain: up to 100 μg/ml; for KD, R215Q α10 I domain: I domain up to 100 μg/ml, Fig. 9C and D
T2 construct: made in house; host or cells: bacteria
T2 sequence (O75578 167-350 R237Q): T1 sequence (O75578 167-350 limits assumed) with R71Q
Protocol: as §1, §2

| Substance | Adhesion of C2C12-α10β1 cells to short triple-helical peptides (C2C12-α10β1 cells) | Binding to integrin α2β1, previously described (α2β1) | Saturation / quality of binding, wild type α10 I domain (wild type α10 I domain) | Saturation / quality of binding, R215Q α10 I domain (R215Q α10 I domain) | Binding to α2β1 (α2β1; ref [8], [10]) | KD, wild type α10 I domain (wild type α10 I domain) | KD, R215Q α10 I domain (R215Q α10 I domain) |
| --- | --- | --- | --- | --- | --- | --- | --- |
| GFOGER [THP containing GFOGER served as positive control, reference compound] | less well | good binding motifs | did not saturate at up to 100 μg/ml; also recorded: good ligand | did not saturate at up to 100 μg/ml; also recorded: good ligand | – | – | – |
| GROGER [short triple-helical peptide containing GROGER] | absence of binding | good binding motifs | bound poorly | enhanced binding; also recorded: bound quite well | relatively good α2β1-binding motif | > 100 µg/mL | about 50 μg/ml |
| GLOGEN [short THP containing GLOGEN] | bound strongly | good binding motifs | saturation binding | enhanced binding of R215Q to GROGER but not GLOGEN; also recorded: saturation binding | – | ~10 µg/mL | ~10 µg/mL |
